Test results reported in patent US12295937B2, “Psychoactive medicines and their use for treating psychiatric and neurological conditions and disorders” (Transcend Therapeutics, Inc., priority 2021, dated 2025).

Legend:
[1] = Rat Forced Swim Test (FST); assay type: in vivo
Description: The Forced Swim Test (FST) is a classic, and the most used preclinical behavioral assay to screen compounds with antidepressant-like activity and has high predictive and face validity (Porsolt et al. (1977) Nature 266:730; Borsini and Meli (1988) Psychopharmacology 94:147). The premise of the FST is that when rats are placed into a cylinder filled with water, they will initially try to escape, but over time will become immobile. This increased immobility reflects behavioral despair, modeling a depressive-like state.
Forced Swim Test (EST): In the FST trial, rats were placed in a circular plexiglass container filled with water, with no means of escape. Water temperature was maintained at 22-25° C. and changed for every animal. After an acclimation period, rats were timed for inactivity (failure to struggle), activity, swim time and climbing time. Day 1 consisted of a 15 min acclimation trial, and Day 2 (24 h later) consisted of the 5 min test. A time sampling procedure was employed where animals were observed every 5 sec and scored for immobility, swimming, or climbing. Fluoxetine (10 mg/kg, IP, Sigma Aldrich) or 0.9% sterile saline vehicle (vehicle 3× group) were administered 23.5, 5, and 1 h before testing in the FST. […] The experimenter was blinded to treatment.
Forced Swim Test: In the FST trial, rats were placed in a circular plexiglass container filled with water, with no means of escape. Water temperature was maintained at 22-25° C. and changed for every animal. After an acclimation period, rats were timed for inactivity (failure to struggle), activity, swim time and climbing time. Day 1 consisted of a 15 min acclimation trial, and Day 2 (24 h later) consisted of the 5 min test. A time sampling procedure was employed where animals were observed every 5 sec and scored for immobility, swimming, or climbing. Fluoxetine (10 mg/kg, IP, Sigma Aldrich) or 0.9% sterile saline vehicle (vehicle 3× group) were administered 23.5, 5, and 1 h before testing in the FST. 2C-B (2.5, 10, or 20 mg/kg, IP, Cayman Chemical) or 0.9% saline vehicle (vehicle 1× group) were administered 30 min prior to FST testing. The experimenter was blinded to treatment.
Drug Treatment: Fluoxetine (10 mg/kg, IP, Sigma Aldrich) or 0.9% sterile saline vehicle were administered 23.5, 5, and 1 h before testing in the FST. […] Control animals received fluoxetine alone, methylone alone, or saline vehicle.
Forced Swim Test: In the FST trial, rats were placed in a circular plexiglass container filled with water, with no means of escape. Water temperature was maintained at 22-25° C. and changed for every animal. After an acclimation period, rats were timed for inactivity (failure to struggle), activity, swim time and climbing time. The experimenter and scorer were blind to treatment group. Day 1 consisted of a 15 min acclimation trial, and Day 2 (24 h later) consisted of the 5 min test. A time sampling procedure was employed where animals were observed every 5 sec and scored for immobility, swimming, or climbing.
The FST was performed and scored by an experimenter blind to treatment group according to standard protocols and based on a “modified FST” procedure (Slattery and Cryan (2012) Nat Protoc, 7:1009). Briefly, rats were placed in a circular plexiglass container (29.2 cm diameter, 49.5 cm height) filled with water to a depth of 30 cm so rats could not support themselves by touching the bottom of the tank. Water was maintained at 22-25° C. and was changed for every animal. Day 1 (Training) consisted of a 15 min acclimation trial, and Day 2 (Testing, 24 h later) consisted of the 5 min test. A time sampling procedure was employed where animals were observed every 5 seconds for the duration of the test session (60 counts or 5 minutes) and scored for immobility (defined as the failure to struggle), swimming (defined as a circular movement around the tank), or climbing (defined as an upwards escape behavior). […]

[2] = Mouse fear extinction paradigm (PTSD model); assay type: in vivo; settings: 5 mg/kg IP, day 2
Description: (FIG. 9A) Schematic of experimental design. A single CS-US (tone-shock) pairing on day 1 was followed by 6 CS presentations in a novel context (context B). […] On day 3, the time spent freezing to the CS was quantified. […] (FIG. 9C) No locomotor changes were observed on day 3 (t(26)=1.073, p>0.05). Data are mcan+/−SEM.
FIGS. 10A-10B: MBDB improves fear extinction in a PTSD mouse model. A single CS-US (tone-shock) pairing on day 1 was followed by 6 conditioned stimulus (CS) presentations in a novel context (context B). MBDB or saline vehicle was injected 30 min prior to extinction training on day 2. The time spent freezing to the CS was quantified on day 2. […] Data are mean+/−SEM. N=10 for MBDB group (5 mg/kg, IP) and N=16 for saline control group. **p<0.01 vs. vehicle control group.
Effective PTSD treatments facilitate the disassociation between a traumatic memory and the patient's fear response, making cues for the traumatic memory evoke less of a fear response. This is modeled in the mouse fear extinction paradigm (see FIG. 9A) which takes place over 3 days. […] On day 3 (extinction recall), the mice are “asked” if that tone (CS) still elicits a fearful response, as measured by the time spent freezing when the tone is presented. […]

Open field test (OFT) = assay type: in vivo, rat; settings: 0.5-30 mg/kg IP, 30 minutes before 30-min test
Method: Method: Consecutive beam breaks and/or video-tracking of time spent in the center versus periphery of the open field are measured. Also measured are parameters such as distance traveled and ambulatory activity (horizontal and vertical) for the duration of the test session.
The open field test (OFT) capitalizes on a rodent's innate fear of open spaces to assess anxiety-like behavior. More time spent in the center of an open field reflects an anxiolytic (anti-anxiety) effect.
Locomotor activity was also measured in the OFT.
To investigate whether MBDB has an anti-anxiety (anxiolytic) effect, rats were dosed with MBDB (0.5-30 mg/kg, IP) or vehicle (saline) and 30-minutes later were tested in the open field for 30 minutes. This anxiety test capitalizes on a rodents' innate fear of wide-open spaces and propensity to hug the walls when placed into the open field. Therefore, a drug that increases the time spent in the center of the open field has anxiolytic activity and predicts utility for treating anxiety in humans.

5-HT/5-HIAA uptake sites = settings: (±)-MBDB·HCl 25 mg/kg IP every 12 hours for 4 days; cited from earlier work
[3] = Reserpine-induced fibromyalgia model, vonFrey test; assay type: in vivo, rat; settings: 2C-B 10 and 20 mg/kg; 60-min post-injection
Method: In this Example, male Sprague Dawley rats are tested in a behavioral model of FMA based on the protocol from Nakagura et al. (2009) Pain 146:26. This model uses three daily doses of reserpine (1 mg/kg, SC) or 0.5% acetic acid vehicle to reduce pain thresholds (i.e., increase pain perception) in the Von Frey Test (vFT, procedure outlined below).
Von Frey Test (vFT) procedure: Increasing pain thresholds in this test are consistent with a reduction in pain perception. Prior to the start of dosing, rats are tested for their baseline mechanical pain threshold. For von Frey measurements, animals are placed into wire bottom cubicles with opaque Plexiglas walls, allowing access to the underside of their paws. Animals are habituated to this environment for at least 30 minutes before the start of the von Frey filament application. Static allodynia is measured using Semmes-Weinstein von Frey filaments (Stoelting, Wood Dale, IL). Mechanical allodynia is tested by touching the plantar surface of the animals' left and right hind paws with von Frey filaments which deliver a calibrated amount of force. Each von Frey filament is presented perpendicularly to the plantar surface for approximately 6 seconds of constant application in either ascending or descending strength in a modified up-and-down method (Chaplan et al. (1994) J Neurosci. Meth. 53:55). Stimulation is presented at intervals of several seconds, allowing for apparent resolution of any behavioral responses to previous stimuli. A positive response is noted if the paw is sharply withdrawn. Flinching immediately upon removal of the hair is also considered a positive response. Ambulation is considered an ambiguous response, and, in such cases, the stimulus is repeated.
VonFrey measurements: Animals were placed into wire bottom cubicles with opaque Plexiglas walls, allowing access to the underside of their paws. […] Static allodynia was measured using Semmes-Weinstein von Frey filaments (Stoelting, Wood Dale, IL). […] The average hindpaw thresholds were determined 60-min post-injection. […]

[4] = Cisplatin chemotherapy-induced peripheral neuropathy (CIPN) model, VonFrey test; assay type: in vivo, mouse
Method: Methods: Male C57Bl/6 mice aged 12-16 weeks were used. Cisplatin (2.5 mg/kg) or vehicle was administered on days 1-5 and 11-15.
Vehicle, sub-chronic 2C-B (5 mg/kg once daily days 17-23) or acute 2C-B (20 mg/kg once on day 17) was then administered IP (N=16-18/group). VonFrey testing took place on day 17 (30 min post-dose) and days 21 and 24 (pre-dose) to monitor the effects of 2C-B in cisplatin treated animals, compared with animals receiving cisplatin+vehicle or vehicle+vehicle.
For von Frey measurements, animals were placed into wire bottom cubicles with opaque Plexiglas walls, allowing access to the underside of their paws. Animals were habituated to this environment for at least 30 minutes before the start of the von Frey filament application. Static allodynia was measured using Semmes-Weinstein von Frey filaments (Stoelting, Wood Dale, IL). Mechanical allodynia was tested by touching the plantar surface of the animals' right and left hind paws with von Frey filaments which deliver a calibrated amount of force (0.07, 0.16, 0.4, 0.6. 1.0, 2.0, 4.0, 6.0 g). Each von Frey filament was presented perpendicularly to the plantar surface for approximately 6 seconds of constant application in either ascending or descending strength in a modified up-and-down method (Chaplan et al. (1994) J Neurosci. Meth. 53:55). […]

[5] = previous reports (Hibicke 2020; Yang 2013; Tizabi 2012); cited from earlier work
[6] = biological target: Human serotonin 5HT2B receptor (Homo sapiens, UniProt P41595); test: Competitive radioligand binding to 5HT2B receptor membranes
Method: Human serotonin 5HT2B receptor membrane preparations were divided into aliquots. On the day of the assay, membranes were diluted at 1:200 in incubation buffer. […] To each well was added 150 μL membrane preparation, 50 μL test compound, non-specific compound, or buffer alone, as well as 50 μL radioligand. The plate was incubated at 35° C. for 90 minutes with gentle agitation. […] For each concentration of drug, non-specific binding was subtracted from total binding to give specific binding. […] Ki was subsequently calculated using the ChengPrusoff equation.

Chain of Human serotonin 5HT2B receptor (P41595 whole entry): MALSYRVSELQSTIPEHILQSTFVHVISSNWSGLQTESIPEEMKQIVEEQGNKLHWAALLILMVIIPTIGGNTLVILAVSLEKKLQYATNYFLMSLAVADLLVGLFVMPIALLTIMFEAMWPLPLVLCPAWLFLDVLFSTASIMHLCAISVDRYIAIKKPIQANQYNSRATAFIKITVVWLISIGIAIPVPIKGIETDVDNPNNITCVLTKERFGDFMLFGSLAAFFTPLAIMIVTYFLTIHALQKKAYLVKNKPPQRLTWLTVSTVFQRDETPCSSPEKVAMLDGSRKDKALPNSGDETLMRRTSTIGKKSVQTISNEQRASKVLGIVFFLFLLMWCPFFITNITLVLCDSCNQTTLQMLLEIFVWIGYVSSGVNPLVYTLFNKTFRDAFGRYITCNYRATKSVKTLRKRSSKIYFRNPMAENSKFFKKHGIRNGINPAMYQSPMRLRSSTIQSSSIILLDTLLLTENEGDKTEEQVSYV

## CCC(Cc1ccc2c(c1)OCO2)NC (racemic) [MBDB, N-methyl-1-(1,3-benzodioxol-5-yl)-2-aminobutane]
[1]; 5-30 mg/kg IP, 30 min before test
  Immobility: significantly reduced immobility
[2]
  Extinction acquisition: improved extinction acquisition on the first trial of extinction training on day 2
Open field test (OFT)
  Increase in time spent in the center vs. control: ~40%
5-HT/5-HIAA uptake sites
  Serotonergic terminals in cortex and hippocampus destroyed: 55-60%

## COc1cc(CCN)c(OC)cc1Br [2C-B, 4-Bromo-2,5-dimethoxyphenethylamine]
[1]; doses as worded
  Climbing behavior: Climbing was significantly decreased only in the high-dose group
  Swimming behavior: significant increase in swimming
[3]
  Animals with maximal (complete) reversal of reserpine-induced pain sensitivity: 100%
[4]; 5 mg/kg once daily days 17-23
  Effect of repeated doses: sustained beneficial effect
[4]; single dose 5 or 20 mg/kg IP, day 17
  Pain thresholds in cisplatin-treated animals: Pain thresholds were significantly increased within 30 min of a single dose

## CNCC[C@H](Oc1cccc2ccccc12)c1cccs1 [Duloxetine, reference compound]
[3]
  Animals with maximal (complete) reversal of reserpine-induced pain sensitivity: 44%

## CCN(CC)C(=O)[C@@H]1C=C2c3cccc4[nH]cc(c34)C[C@H]2N(C)C1 [LSD, lysergic acid-N,N-diethylamide]
[5]
  Reduction in immobility in the FST: 38%

## CC(N)Cc1ccc2c(c1)OCO2 (stereo not shown) [MDA, reference compound]
[6]
  Times greater affinity for the 5HT2B receptor compared with methylone: 37 times

## CNCCC(Oc1ccc(C(F)(F)F)cc1)c1ccccc1 (stereo not shown) [fluoxetine, reference compound]
[1]; doses as worded
  Swimming behavior: significantly increased swimming behavior
